In the Deep4Chem optical property database:
Values joined by “and” are separate entries in the source; they are usually repeats but may differ in a detail not shown here. Equal values may be shown once. Each block holds one compound with its values, some of them ahead of it.

Assay: photoluminescence quantum yield (fraction); solvent given as SMILES

SMILES: COc1nc(Cl)nc(Nc2ccc3c4c(cccc24)C(=O)c2ccccc2-3)n1
photoluminescence quantum yield (in CC#N): 0.52
photoluminescence quantum yield (in CC(C)=O): 0.54
photoluminescence quantum yield (in CC(C)O): 0.5
photoluminescence quantum yield (in CCCCOCCCC): 0.05
photoluminescence quantum yield (in CCOC(C)=O): 0.34
photoluminescence quantum yield (in CCOCC): 0.12
photoluminescence quantum yield (in CO): 0.33
photoluminescence quantum yield (in Cc1ccccc1): 0.27
photoluminescence quantum yield (in Clc1ccccc1): 0.5
photoluminescence quantum yield (in N#Cc1ccccc1): 0.58
photoluminescence quantum yield (in O=C1CCCCC1): 0.51

photoluminescence quantum yield (in c1ccccc1): 0.526
SMILES: CN(C)c1ccc2nc(-c3ccccc3)c(=O)oc2c1

SMILES: C#CCNC1=C2C=CC=[N+]2[B-](F)(F)n2cccc21
photoluminescence quantum yield (in C1CCCCC1): 0.93 and 0.999
photoluminescence quantum yield (in CC(C)=O): 0.86
photoluminescence quantum yield (in CCCCO): 0.79
photoluminescence quantum yield (in CCCO): 0.741
photoluminescence quantum yield (in CCO): 0.66 and 0.6
photoluminescence quantum yield (in CCOC(C)=O): 0.94
photoluminescence quantum yield (in CN(C)C=O): 0.442
photoluminescence quantum yield (in CO): 0.52
photoluminescence quantum yield (in CS(C)=O): 0.278
photoluminescence quantum yield (in Cc1ccccc1): 0.92
photoluminescence quantum yield (in ClC(Cl)Cl): 0.829
photoluminescence quantum yield (in OCC(F)(F)F): 0.88
photoluminescence quantum yield (in c1ccccc1): 0.924

photoluminescence quantum yield (in ClCCl): 0.21
SMILES: [O-][n+]1c(/C=C/c2ccccc2)nc(N2CCOCC2)c2c1CCCC2

photoluminescence quantum yield (in ClC(Cl)Cl): 0.47
SMILES: Fc1cccc(C2=Cc3ccc4ccccc4[n+]3[B-](F)(F)O2)c1

photoluminescence quantum yield (in C1CCCCC1): 0.0028
photoluminescence quantum yield (in CC#N): 0.028
photoluminescence quantum yield (in CCO): 0.002
SMILES: COc1ccc2c(c1)-c1cc(OC)ccc1C2=O

SMILES: Cn1cc(-c2nc3ccccc3nc2/C=C/N2CCCC2)c2ccccc21
photoluminescence quantum yield (in C1CCCCC1): 0.126
photoluminescence quantum yield (in C1CCOC1): 0.444
photoluminescence quantum yield (in CC#N): 0.43
photoluminescence quantum yield (in CC(C)=O): 0.456
photoluminescence quantum yield (in CCO): 0.048
photoluminescence quantum yield (in CO): 0.012
photoluminescence quantum yield (in CS(C)=O): 0.496
photoluminescence quantum yield (in Cc1ccccc1): 0.375
photoluminescence quantum yield (in ClCCl): 0.579

photoluminescence quantum yield (in CC1CCCO1): 0.13
SMILES: O=c1cc2c(-c3c(O)c4cccc5ccc6oc(=O)cc3c6c54)c(O)c3cccc4ccc(o1)c2c43

SMILES: CSC1=C2C=C(c3cc4n(c3)[B-](F)(F)[N+]3=CC=CC3=C4c3c(C)cc(C)cc3C)C(C)=[N+]2[B-](F)(F)n2c(C)ccc21
photoluminescence quantum yield (in C1CCCCC1): 0.83
photoluminescence quantum yield (in CC#N): 0.01
photoluminescence quantum yield (in CC(C)=O): 0.01
photoluminescence quantum yield (in CCOC(C)=O): 0.19
photoluminescence quantum yield (in Cc1ccccc1): 0.57

photoluminescence quantum yield (in CC#N): 0.5
photoluminescence quantum yield (in CS(C)=O): 0.32
photoluminescence quantum yield (in ClC(Cl)Cl): 0.55
SMILES: C#CCn1c2ccccc2c2cc(/C=C/C3=[N+]4C(=C(c5ccc(I)cc5)c5c(C)c(Cl)c(/C=C/c6ccc7c(c6)c6ccccc6n7CC#C)n5[B-]4(F)F)C(C)=C3Cl)ccc21

SMILES: CCCC1=Cc2nc1ccc1[nH]c(cc1CCOC)c1nc(ccc3[nH]c2cc3CCC)C(CCOC)=C1
photoluminescence quantum yield (in Cc1ccccc1): 0.54

SMILES: CCCCCCCCCCn1nnc(-c2ccc(C#Cc3ccc(C#Cc4ccc(-c5nnn(CCCCCCCCCC)n5)cc4)c4nc5c6ccccc6c6ccccc6c5nc34)cc2)n1
photoluminescence quantum yield (in C1CCOC1): 0.05
photoluminescence quantum yield (in Cc1ccccc1): 0.07
photoluminescence quantum yield (in ClCCl): 0.04

photoluminescence quantum yield (in ClCCl): 0.38
SMILES: [BH3-][P+]1(c2ccccc2)c2ccccc2-c2sc3ccccc3c21 (configuration not stated)

photoluminescence quantum yield (in ClC(Cl)Cl): 0.09 and 0.08
SMILES: C(#Cc1ccccc1)C(C#Cc1ccccc1)=Cc1ccc(C=C(C#Cc2ccccc2)C#Cc2ccccc2)s1

photoluminescence quantum yield (in CCCCCC): 0.02
photoluminescence quantum yield (in ClCCl): 0.02
SMILES: CC(C)[Si](C#Cc1ccc(C#C[Si](C(C)C)(C(C)C)C(C)C)c2nc3cc4c(cc3nc12)[C@H]1c2ccccc2[C@@H]4c2ccccc21)(C(C)C)C(C)C

SMILES: CCN(CC)c1ccc2c(C#N)c(/C=C(\C#N)c3nc4ccccc4o3)c(=O)oc2c1
photoluminescence quantum yield (in C1COCCO1): 0.0328
photoluminescence quantum yield (in CC#N): 0.0658
photoluminescence quantum yield (in CCO): 0.0144
photoluminescence quantum yield (in CCOC(C)=O): 0.0434
photoluminescence quantum yield (in CO): 0.0121
photoluminescence quantum yield (in Cc1ccccc1): 0.101
photoluminescence quantum yield (in ClCCl): 0.105

SMILES: Nc1ccc2c3cccc4cccc(c5cccc1c52)c43
photoluminescence quantum yield (in C1CCCCC1): 0.55
photoluminescence quantum yield (in C1CCOC1): 0.58
photoluminescence quantum yield (in C1COCCO1): 0.28
photoluminescence quantum yield (in CC(C)=O): 0.5
photoluminescence quantum yield (in CCCCOCCCC): 0.24
photoluminescence quantum yield (in CCOC(C)=O): 0.2
photoluminescence quantum yield (in CN(C)C=O): 0.56
photoluminescence quantum yield (in CO): 0.45
photoluminescence quantum yield (in ClCCl): 0.47
